Assay results reported in patent US20260014178A1, “COMPOSITIONS AND USES THEREOF” (Optibiotix Limited, priority 2022, published 2026).

Columns and labels:
[1] = tested on: gut microbiome; assay: Non pH-controlled anaerobic faecal cultures, gas production; assay type: cell-based; conditions: 6 donors, FIG. 1
Method: Non pH-controlled, anaerobic, faecal cultures were investigated to evaluate the rate of gas production and cumulative gas production over 24 h in the presence of each test substrate.
(§1) All carbohydrates were tested in parallel, using the same faecal sample from a healthy donor. Fermentations were repeated using the faecal samples of each of 6 donors. Faeces in the absence of test substrate were used as the negative control in each run.

[2] = tested on: gut microbiome; assay: pH-controlled anaerobic faecal cultures, organic acid production; assay type: cell-based; conditions: FIG. 3
Method: pH-controlled, anaerobic, faecal cultures were carried out to evaluate the impact of each test carbohydrate on gut microbiome composition and activity (organic acid production). The test carbohydrates were as follows: Inulin, Fructooligosaccharides (FOS), Xylooligosaccharides (XOS), gentiooligosaccharides (GeOS) and cellobiose.
as §1

Structure (SMILES): O=C[C@H](O)[C@@H](O)[C@H](O[C@@H]1O[C@H](CO)[C@@H](O)[C@H](O)[C@H]1O)[C@H](O)CO [Cellobiose, cellobiose]
- rate of gas production [1]: significantly higher compared to all test substrates
- lactate production / accumulation [2]: high levels
